According to patent US20140065615A1, “The KRAS Variant and Tumor Biology” (YALE UNIVERSITY, priority 2011, published 2014):

What was measured:
Type in all cases: cell-based
[1] = test system: BG1 (KRAS variant/BRCA wild-type cell line); assay: CellTiter-Blue chemosensitivity / cell viability assay, BG1; conditions: KRAS-variant line BG1 vs non-variant CAOV3
Procedure: (§1) The activity of drugs alone or in combination was determined by a high-through-put CellTiter-Blue cell viability assay. For these assays, 1.2×10^3 cells were plated in each well of 384-well plates using a Precision XS liquid handling station (Bio-Tek Instruments Inc., Winooski, Vt., USA) and allowed to attach overnight with incubation at 37° C., 5% CO2. Using the liquid handling station, all drugs were serially diluted 2:3 or 1:2 in media, and 5 μl of these dilutions were added to appropriate wells at indicated times. Four replicate wells were used for each drug concentration and an additional four control wells received a diluent control without drug. At the end of the incubation period with drugs, 5 μl CellTiter-Blue reagent (Promega Corp., Madison, Wis., USA) was added to each well. Cell viability was assessed by the ability of the remaining viable cells to bioreduce resazurin to resorufin. The fluorescence of resorufin (579 nm Ex/584 nm Em) was measured using a Synergy 4 microplate reader (Bio-Tek Instruments Inc.). […] IC50s were determined using a sigmoidal equilibrium model regression using XLfit version 5.2 (ID Business Solutions Ltd). The IC50 was defined as the concentration Of drug required for a 50% reduction in growth/viability. All experiments were carried out a minimum of three times.
For example, a cell line that is KRAS variant positive/BRCA wild-type (BG1), a non-variant/BRCA wild-type cell line (CAOV3) and a cell line KRAS-variant positive/BRCA1 mutant (IGR-OV1) were tested.

[2] = test system: IGR-OV1 (KRAS-variant/BRCA1 mutant cell line); assay: CellTiter-Blue chemosensitivity / cell viability assay, IGR-OV1; conditions: KRAS variant and deleterious BRCA1 mutation line vs CAOV3
Procedure: as §1, with “three times. […]” for “three times.”

[3] = test system: wild-type 3′UTR reporter (KRAS); assay: Luciferase reporter expression after irinotecan exposure, wild-type 3′UTR reporter
Text: (§2) The disclosure provides a method of predicting the response of a cancer cell to the combination of a chemotherapy and monoclonal antibody therapy, including detecting a mutation in let-7 complementary site LCS6 of human KRAS in a patient sample, wherein the mutation is a SNP comprising a uracil (U) or thymine (T) to guanine (G) transition at position 4 of LCS6, and wherein the presence of the mutation indicates a resistance to the combination. In certain embodiments of this method, the cancer cell is a colorectal cancer (CRC) cell. The cancer cell may be evaluated in vitro or ex vivo. […] The chemotherapy may be a cytotoxic agent. A non-limiting example of the cytotoxic agent is irinotecan.

[4] = test system: KRAS-variant 3′UTR reporter; assay: Luciferase reporter expression after irinotecan exposure, KRAS-variant 3′UTR reporter
Text: as §2

Row | reporter expression following irinotecan exposure [3] | reporter expression following irinotecan exposure [4] | Structure (SMILES) | resistance of BG1 compared with CAOV3 [1] | resistance of IGROV1 compared with CAOV3 [2]
1 |  |  | COc1cccc2c1C(=O)c1c(O)c3c(c(O)c1C2=O)C[C@@](O)(C(=O)CO)C[C@@H]3O[C@H]1C[C@H](N)[C@H](O)[C@H](C)O1 [Doxorubicin, doxorubicin] | significantly resistant | 
2 |  |  | Nc1ccn([C@@H]2O[C@H](CO)[C@@H](O)C2(F)F)c(=O)n1 [Gemcitabine, gemcitabine] | significantly resistant | 
3 |  |  | CC[C@@]1(O)C(=O)OCc2c1cc1n(c2=O)Cc2cc3c(CN(C)C)c(O)ccc3nc2-1 [Topotecan, topotecan] | significantly resistant | 
4 |  |  | N.N.O=C([O-])C1(C(=O)[O-])CCC1.[Pt+2] [carboplatin] | statistically significantly resistant | not resistant
5 | no change | statistically-significant increase | CCc1c2c(nc3ccc(OC(=O)N4CCC(N5CCCCC5)CC4)cc13)-c1cc3c(c(=O)n1C2)COC(=O)[C@]3(O)CC [irinotecan] |  | 
